Laboratory results: PMC9436819 (JACC: Basic to Translational Science, 2022)
Entries after “also recorded” stand apart in the source; their conditions may differ. Where two headings read alike, the source gives them in different places.

What was measured:
healthy adults = assay: Overall safety and tolerability (AEs, ECG, vital signs, laboratory tests), all cohorts; type: in vivo, human
Experimental: Safety was assessed by the incidence of adverse events (AEs) and by the incidence of reduced LVEF. Treatment-emergent AEs (TEAEs) were defined as AEs that began or increased after study drug administration. All AEs were coded using the Medical Dictionary for Regulatory Activities, version 21.1, and graded using the National Cancer Institute Common Terminology Criteria for AEs (version 4.03) 5-point severity scale.[18] Each AE was judged as either related or unrelated to the study drug by the treating investigator. Clinical laboratory tests were obtained at regular intervals in all cohorts.
For safety monitoring, participants in all cohorts had periodic echocardiograms, which were assessed by a cardiologist. In the SAD and MAD cohorts, echocardiograms were also reviewed by an echocardiography core laboratory for PD assessments, as described in the section on echocardiographic methods. In addition, participants in all cohorts were monitored with continuous 12-lead ECG recording using Holter monitors. For safety monitoring, a single 12-lead ECG was extracted at screening, predose, and periodically throughout follow-up and interpreted by the investigator. In the SAD, MAD, and CYP2D6-PM cohorts, cardiodynamic ECGs (triplicate 10-second, 12-lead ECG recordings) were obtained before the corresponding PK blood sample (see the Supplemental Appendix for full details on blood sampling), and ECG intervals were quantitated by qualified readers.

[1] = Plasma pharmacokinetics after multiple oral doses (MAD cohorts); type: in vivo, human; conditions: for AUC / Cmax / Tmax / half-life: human, plasma, oral; for AUC / Cmax: geometric mean (geometric CV%); for Tmax: median (range)
Excerpt: The MAD cohorts also used a randomized, double-blind, placebo-controlled, sequential design. […] For all study groups, blood samples for PK assessment were obtained predose, up to 12 times daily on day 1, and then at regular intervals throughout the study (see Supplemental Appendix for details). Standard noncompartmental methods were used to calculate PK parameters using Phoenix WinNonlin, version 7.0; actual sample collection times were used. […] Steady-state analysis In the M AD cohort, a steady- state an alysis for […] erfo rmed o n the ln-transformed plasma trough concentrat ion (Ctrough) values using Helmert contrasts. An analysis of variance (ANOVA) model was co nducted separately fo r each dose level; day w as in cluded as the fix ed effect. Helmert contrasts were d eveloped su ch that each time- point was compared with the mean of the subsequent time-points. Steady state was established at the time-point where no statistical differen ce (alpha = 5%, 2 -sided) was obs […] the subsequent time-points. 5

## CCc1nc(-c2ccc3c(c2)CC[C@H]3NC(=O)c2cnn(C)c2)no1 [Aficamten]
Healthy adults; all cohorts
  Discontinuation of the study because of AEs: no participants discontinued
  Serious AEs: no serious AEs; also recorded: without serious AEs
  Vital signs at postdose timepoints: within normal limits
Healthy adults; all cohorts, exception of 2 individuals with baseline QTcF ≥440 ms whose QTcF increased by 3 and 13 ms
  QTcF at baseline or any assessment during the dosing interval: ≤ 450 ms
Healthy adults; all cohorts, only exception was 1 participant in the SAD placebo group
  Increase in QTcF interval: ≤ 30 ms
Healthy adults; during the study
  Serum chemistry, hematology, or urinalysis findings: No clinically significant
Healthy adults; following single or multiple doses
  Effect on the QT interval (cardiodynamic assessments): no evidence of an effect
Healthy adults; single doses of ≤50 mg or daily dosing of ≤10 mg for 14 or 17 days
  Tolerability: safe and well tolerated
Healthy adults; single-dose and multiple-dose administration
  Severity of observed TEAEs: generally mild (grade 1)
[1]; 5-mg dose once daily
  Day by the end of which steady state was achieved: 12 days
[1]; 7.5-mg dose once daily
  Day by the end of which steady state was achieved: 12 days
[1]; 10-mg dose once daily
  Day by the end of which steady state was achieved: 10 days
[1]; 5 mg, Day 1, 5 mg qd × 14 d, n = 6, read-out: AUC24
  AUC: 278 ng·h/mL
[1]; 5 mg, Day 1, 5 mg qd × 14 d, n = 6, read-out: Cmax
  Cmax: 28 ng/mL
[1]; 5 mg, Day 1, 5 mg qd × 14 d, n = 6, read-out: Tmax
  Tmax: 1.3 h
[1]; 5 mg, Day 14, 5 mg qd × 14 d, arithmetic mean ± SD, n = 6, read-out: t½ (converted)
  half-life: 86.4 ± 11.9 h
[1]; 5 mg, Day 14, 5 mg qd × 14 d, n = 6, read-out: AUCtau
  AUC: 1320 ng·h/mL
[1]; 5 mg, Day 14, 5 mg qd × 14 d, n = 6, read-out: Cmax,ss
  Cmax: 69 ng/mL
[1]; 5 mg, Day 14, 5 mg qd × 14 d, n = 6, read-out: Tmax,ss
  Tmax: 2.8 h
[1]; 7.5 mg, Day 1, 7.5 mg qd × 17 d, n = 6, read-out: AUC24
  AUC: 551 ng·h/mL
[1]; 7.5 mg, Day 1, 7.5 mg qd × 17 d, n = 6, read-out: Cmax
  Cmax: 69.3 ng/mL
[1]; 7.5 mg, Day 1, 7.5 mg qd × 17 d, n = 6, read-out: Tmax
  Tmax: 0.8 h
[1]; 7.5 mg, Day 17, 7.5 mg qd × 17 d, arithmetic mean ± SD, n = 6, read-out: t½ (converted)
  half-life: 76.9 ± 14.5 h
[1]; 7.5 mg, Day 17, 7.5 mg qd × 17 d, n = 6, read-out: AUCtau
  AUC: 2520 ng·h/mL
[1]; 7.5 mg, Day 17, 7.5 mg qd × 17 d, n = 6, read-out: Cmax,ss
  Cmax: 148 ng/mL
[1]; 7.5 mg, Day 17, 7.5 mg qd × 17 d, n = 6, read-out: Tmax,ss
  Tmax: 1 h
[1]; 10 mg, 5, 7.5, 10 mg once daily, read-out: Terminal elimination half-life, range across multiple-dose cohorts
  half-life: 77 to 86 h
[1]; 10 mg, Day 1, 10 mg qd × 14 d, n = 6, read-out: AUC24
  AUC: 547 ng·h/mL
[1]; 10 mg, Day 1, 10 mg qd × 14 d, n = 6, read-out: Cmax
  Cmax: 54.4 ng/mL
[1]; 10 mg, Day 1, 10 mg qd × 14 d, n = 6, read-out: Tmax
  Tmax: 1 h
[1]; 10 mg, Day 14, 10 mg qd × 14 d, arithmetic mean ± SD, n = 6, read-out: t½ (converted)
  half-life: 79.8 ± 14.1 h
[1]; 10 mg, Day 14, 10 mg qd × 14 d, n = 6, read-out: AUCtau
  AUC: 2630 ng·h/mL
[1]; 10 mg, Day 14, 10 mg qd × 14 d, n = 6, read-out: Cmax,ss
  Cmax: 141 ng/mL
[1]; 10 mg, Day 14, 10 mg qd × 14 d, n = 6, read-out: Tmax,ss
  Tmax: 2.5 h
[1]; once-daily dosing
  Attainment of steady state: ≤ 2 weeks
